Measured values: patent publication US20080214542A1, “Arylpiperazine Derivatives and their Use as Selective Dopamine D3 Receptor Ligands” (BIOPROJET, priority 2004, published 2008)
Structures can show the parent of a compound that is named as a salt. Where two headings read alike, the source gives them in different places.

Target: human dopamine D3 receptor (hD3) (Homo sapiens, UniProt P35462)
Experiment: Binding of [3H]spiperone to membranes of CHO cells transfected with the human dopamine D3 receptor
Method: Biological Results: Determination of the Affinity of the Compounds for the Human Dopamine D3 Receptor
Binding of [^3H]spiperone:
CHO cells were transfected by the gene coding for the human dopamine D3 receptor (hD3). The binding of [^3H]spiperone (0.5 to 2 nM) takes place in the presence of 5 to 10 μg of membranous proteins in a medium containing 120 mM NaCl, 5 mM KCl, and 50 mM Tris HCL pH 7.4; an incubation of 60 minutes at ambient temperature is necessary. The non-specific binding is estimated in the presence of 5 μM of haloperidol. The non-transfected cells are devoid of any binding activity.

[1] = binding of [3H]spiperone (0.5 to 2 nM), hD3-transfected CHO cell membranes, 60 minutes at ambient temperature, read-out: hD3 Ki

Sequence of human dopamine D3 receptor (hD3) (P35462 whole entry): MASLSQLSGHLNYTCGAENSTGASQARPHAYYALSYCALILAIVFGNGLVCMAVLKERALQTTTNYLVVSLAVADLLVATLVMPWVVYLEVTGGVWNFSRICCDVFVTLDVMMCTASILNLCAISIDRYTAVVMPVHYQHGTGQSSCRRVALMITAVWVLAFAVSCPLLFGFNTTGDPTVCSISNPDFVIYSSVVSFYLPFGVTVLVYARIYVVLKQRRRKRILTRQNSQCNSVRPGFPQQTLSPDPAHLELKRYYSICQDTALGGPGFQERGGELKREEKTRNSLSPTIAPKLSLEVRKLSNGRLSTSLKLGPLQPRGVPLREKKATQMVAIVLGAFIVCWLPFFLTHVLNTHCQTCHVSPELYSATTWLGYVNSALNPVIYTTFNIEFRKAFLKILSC

Row | Compound | Ki [1] [nM] | Ki (comparative example, affinity for the dopamine D3 receptor, read-out: Ki) [nM]
1 | COC(=O)c1ccc2c(c1)CN(C(=O)CCCCCN1CCN(c3cccc(C(F)(F)F)c3)CC1)C2 [Example 12, 1-(5-methoxycarbonylisoindolin-2-yl)-6-[4-(3-trifluoromethylphenyl)piperazin-1-yl]hexan-1-one hydrochloride] | 0.85 | –
2 | O=C(CCCCCN1CCN(c2cccc3c2CCCC3)CC1)N1Cc2ccccc2C1 [Example 38, 1-isoindolin-2-yl-6-[4-(5,6,7,8-tetrahydro-naphthalen-1-yl)piperazin-1-yl]hexan-1-one] | 0.84 | –
3 | COc1ccc2c(c1)CN(C(=O)CCCCCN1CCN(c3cccc(C(F)(F)F)c3)CC1)C2 [Example 1, 1-(5-methoxyisoindolin-2-yl)-6-[4-(3-trifluoromethylphenyl)piperazin-1-yl]hexan-1-one] | 0.9 | –
4 | O=C(CCCCCN1CCN(c2cccc(F)c2)CC1)N1Cc2ccccc2C1 [reference compound] | – | 321
5 | O=C(CCCCCN1CCN(c2cccc(C(F)(F)F)c2)CC1)N1Cc2ccc(F)cc2C1 [Example 7, 1-(5-fluoroisoindolin-2-yl)-6-[4-(3-trifluoromethylphenyl)piperazin-1-yl]hexan-1-one] | 1.05 | –
6 | N#Cc1ccc2c(c1)CN(C(=O)CCCCCN1CCN(c3cccc(C(F)(F)F)c3)CC1)C2 [Example 3, 1-(5-cyanoisoindolin-2-yl)-6-[4-(3-trifluoromethylphenyl)piperazin-1-yl]-hexan-1-one hydrochloride] | 2.6 | –
7 | O=C(CCCCCN1CCN(c2cccc(C(F)(F)F)c2)CC1)N1Cc2ccc(OCCCN3CCCCC3)cc2C1 [Example 24, 1-[5-(3-piperidinopropoxy)isoindolin-2-yl]-6-[4-(3-trifluoromethylphenyl)piperazin-1-yl]hexan-1-one] | 1.21 | –
8 | O=C(CCCCCN1CCN(c2cccc(C(F)(F)F)c2)CC1)N1Cc2cc3c(cc2C1)OCO3 [Example 10, 1-(6,7-dihydro-5H-[1,3]dioxolo[4,5-f]isoindol-6-yl)-6-[4-(3-trifluoromethylphenyl)piperazin-1-yl]hexan-1-one] | 1.17 | –
9 | O=C(CCCCCN1CCC(c2cccc(C(F)(F)F)c2)CC1)N1Cc2ccccc2C1 [Example 51, 1-isoindolin-2-yl-6-[4-(3-trifluoromethyl-phenyl)-piperidin-1-yl]hexan-1-one] | 19.7 | –
10 | O=C(CCCCCN1CC=C(c2cccc(C(F)(F)F)c2)CC1)N1Cc2ccccc2C1 [Example 50, 1-isoindolin-2-yl-6-[4-(3-trifluoromethylphenyl)-3,6-dihydro-2H-pyridin-1-yl]hexan-1-one] | 0.93 | –
